Measured values: patent publication US11833156B2, “Heterocyclic compounds as pad inhibitors” (JUBILANT EPIPAD LLC, priority 2017, dated 2023)

Key:
PAD4 enzyme [1] = molecular target: T1, PAD4 enzyme (Homo sapiens (Human), UniProt Q9UM07); experiment: FP Binding Assay; details: for IC50: PAD4 1 uM, 10 nM fluorescein labelled probe JPAD-00085
Experimental: Binding of compounds with PAD4 enzyme was detected by FP assay. PAD4 enzyme was diluted to 1 uM in assay buffer (100 mM HEPES, 50 mM NaCl, 1 mM DTT, 5% Glycerol and 1 mM CHAPS) and added to wells containing various concentration of compounds or DMSO vehicle (1%) in a 384 well black plate. 10 nM of fluorescein labelled probe (JPAD-00085) was added to the plate. Assay plate was incubated for 60 minutes at room temperature before measuring FP reading at FP module (λex 485/λem 535 nm) on Pherastar. IC50 was calculated using XL-fit software model 205. (Ref: Nat Chem Biol. 2015 March; 11(3):189-91).

PAD4 enzyme [2] = molecular target: T1, PAD4 enzyme; experiment: Ammonia Release Biochemical Assay (citrullination detected via ammonia release); details: PAD4 120 nM, substrate BAEE, 60-min preincubation, read-out: NH3 release
Experimental: Ammonia Release Biochemical Assay
Citrullination assay was detected via ammonia release. PAD4 enzyme was diluted to 120 nM in assay buffer (100 mM HEPES, 50 mM NaCl, 2 mM DDT, 0.6 mg/mL BSA, pH 7.4) added to wells containing various concentration of compound or DMSO vehicle (1% final) in black 384 well plate. Following a 60-min preincubation at room temperature, the reaction was initiated by the addition of substrate (1.5 mM BAEE in 200 mM HEPES, 50 mM NaCl, 350 uM CaCl2, 2 mM, pH 7.4). The reaction was stopped after 60 min by addition of stop/detection buffer containing 50 mM EDTA, 2.6 mM of o-phthaladehyde and 2.6 mM DTT. Assay was incubated at room temperature for 90 min before measuring fluorescence's (λex 405/λem 460 nm) on Tecan reader. IC50 was calculated using XL-fit software model 205. (Ref: Nat Chem Biol. 2015 March; 11(3):189-91).

T1 sequence (Q9UM07 whole entry): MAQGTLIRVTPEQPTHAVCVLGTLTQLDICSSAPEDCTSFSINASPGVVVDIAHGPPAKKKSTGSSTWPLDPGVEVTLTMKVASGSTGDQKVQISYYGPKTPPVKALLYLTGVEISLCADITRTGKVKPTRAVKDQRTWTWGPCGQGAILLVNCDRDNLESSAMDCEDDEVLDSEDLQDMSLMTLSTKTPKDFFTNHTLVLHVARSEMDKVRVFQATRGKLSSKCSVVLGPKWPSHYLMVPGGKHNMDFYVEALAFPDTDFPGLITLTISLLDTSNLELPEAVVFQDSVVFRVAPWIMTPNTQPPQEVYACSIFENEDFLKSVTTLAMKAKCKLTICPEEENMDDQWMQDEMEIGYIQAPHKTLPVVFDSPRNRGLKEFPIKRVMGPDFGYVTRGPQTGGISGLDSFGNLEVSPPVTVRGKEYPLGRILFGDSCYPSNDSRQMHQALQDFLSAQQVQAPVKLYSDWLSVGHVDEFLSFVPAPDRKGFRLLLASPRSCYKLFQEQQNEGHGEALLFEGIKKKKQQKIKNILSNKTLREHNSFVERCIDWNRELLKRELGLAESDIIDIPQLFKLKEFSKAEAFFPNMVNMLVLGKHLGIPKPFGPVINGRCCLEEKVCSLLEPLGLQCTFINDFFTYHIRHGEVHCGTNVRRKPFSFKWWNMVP

Compound	IC50 (PAD4 enzyme [1]) [nM]	IC50 (PAD4 enzyme [2]) [nM]	inhibition of PAD4 enzyme activity in FP Binding assay (PAD4 enzyme [1])
N[C@@H]1CCCN(C(=O)c2cc3c4c(c2)nc(-c2cc5ccccc5n2CC2CC2)n4CCO3)C1 [Example 1, (R)-(3-aminopiperidin-1-yl)(2-(1-(cyclopropylmethyl)-1H-indol-2-yl)-3,4-dihydro-5-oxa-1,2a-diazaacenaphthylen-7-yl)methanone]	1000 to 10000	–	–
CCn1c(-c2nc3cc(C(=O)N4CCC[C@@H](N)C4)cc4c3n2CCO4)cc2cccnc21 [Example 5, (R)-(3-aminopiperidin-1-yl)(2-(1-ethyl-1H-pyrrolo[2,3-b]pyridin-2-yl)-3,4-dihydro-5-oxa-1,2a-diazaacenaphthylen-7-yl)methanone]	1000 to 10000	1000 to 10000	–
N[C@@H]1CCCN(C(=O)c2cc3c4c(c2)nc(-c2cc5cc(F)ccc5n2CC2CC2)n4CCO3)C1 [Example 9, (R)-(3-aminopiperidin-1-yl)(2-(1-(cyclopropylmethyl)-5-fluoro-1H-indol-2-yl)-3,4-dihydro-5-oxa-1,2a-diazaacenaphthylen-7-yl)methanone]	≤ 1000	≤ 1000	–
N[C@@H]1CCCN(C(=O)c2cc3c4c(c2)nc(-c2cc5ccccc5n2Cc2ccc(Cl)cc2)n4CCO3)C1 [Example 13, (R)-(3-aminopiperidin-1-yl)(2-(1-(4-chlorobenzyl)-1H-indol-2-yl)-3,4-dihydro-5-oxa-1,2a-diazaacenaphthylene-7-yl)methanone]	1000 to 10000	≤ 1000	–
N[C@@H]1CCCN(C(=O)c2cc3c4c(c2)nc(-c2cc5ccccc5n2Cc2ccccc2F)n4CCO3)C1 [Example 14, (R)-(3-aminopiperidin-1-yl)(2-(1-(2-fluorobenzyl)-1H-indol-2-yl)-3,4-dihydro-5-oxa-1,2a-diazaacenaphthylene-7-yl)methanone]	–	1000 to 10000	actively inhibiting PAD4 enzyme activity
N[C@@H]1CCCN(C(=O)c2cc3c4c(c2)nc(-c2cc5ccccc5n2Cc2ccc(F)cc2)n4CCO3)C1 [Example 15, (R)-(3-aminopiperidin-1-yl)(2-(1-(4-fluorobenzyl)-1H-indol-2-yl)-3,4-dihydro-5-oxa-1,2a-diazaacenaphthylen-7-yl)methanone]	1000 to 10000	≤ 1000	–
N[C@@H]1CCCN(C(=O)c2cc3c4c(c2)nc(-c2cc5ccccc5n2Cc2cccnc2)n4CCO3)C1 [Example 16, (R)-(3-aminopiperidin-1-yl)(2-(1-(pyridin-3-ylmethyl)-1H-indol-2-yl)-3,4-dihydro-5-oxa-1,2a-diazaacenaphthylen-7-yl)methanone]	1000 to 10000	≤ 1000	–
COc1cc2cc(-c3nc4cc(C(=O)N5CCC[C@@H](N)C5)cc5c4n3CCO5)n(CC3CC3)c2cc1OC [Example 17, (R)-(3-aminopiperidin-1-yl)(2-(1-(cyclopropylmethyl)-5,6-dimethoxy-1H-indol-2-yl)-3,4-dihydro-5-oxa-1,2a-diazaacenaphthylen-7-yl)methanone]	1000 to 10000	≤ 1000	–
N[C@@H]1CCCN(C(=O)c2cc3c4c(c2)nc(-c2cc5ccccc5n2Cc2ccccc2)n4CCO3)C1 [Example 18, (R)-(3-aminopiperidin-1-yl)(2-(1-benzyl-1H-indol-2-yl)-3,4-dihydro-5-oxa-1,2a-diazaacenaphthylen-7-yl)methanone]	1000 to 10000	≤ 1000	–
COc1ccc(Cn2c(-c3nc4cc(C(=O)N5CCC[C@@H](N)C5)cc5c4n3CCO5)cc3ccccc32)cc1 [Example 19, (R)-(3-aminopiperidin-1-yl)(2-(1-(4-methoxybenzyl)-1H-indol-2-yl)-3,4-dihydro-5-oxa-1,2a-diazaacenaphthylen-7-yl)methanone]	–	–	actively inhibiting PAD4 enzyme activity
N[C@@H]1CCCN(C(=O)c2cc3c4c(c2)nc(-c2cc5ccc(F)cc5n2CC2CC2)n4CCN3)C1 [Example 65, (R)-(3-aminopiperidin-1-yl)(2-(1-(cyclopropylmethyl)-6-fluoro-1H-indol-2-yl)-5,6-dihydro-4H-imidazo [1,5,4-de]quinoxalin-8-yl)methanone]	≤ 1000	≤ 1000	–
N[C@@H]1CCCN(C(=O)c2cc3c4c(c2)nc(-c2cc5ccccc5n2Cc2cccnc2)n4CCN3)C1 [Example 66, (R)-(3-aminopiperidin-1-yl)(2-(1-(pyridin-3-ylmethyl)-1H-indol-2-yl)-5,6-dihydro-4H-imidazo [1,5,4-de]quinoxalin-8-yl)methanone]	1000 to 10000	≤ 1000	–
CN1CCn2c(-c3cc4ccccc4n3CC3CC3)nc3cc(C(=O)N4CCC[C@@H](N)C4)cc1c32 [Example 72, (R)-(3-aminopiperidin-1-yl)(2-(1-(cyclopropylmethyl)-1H-indol-2-yl)-6-methyl-5,6-dihydro-4H-imidazo[1,5,4-de]quinoxalin-8-yl)methanone]	–	–	actively inhibiting PAD4 enzyme activity
COc1ccc2cc(-c3nc4cc(C(=O)N5CCC[C@@H](N)C5)cc5c4n3CCN5)n(CC3CC3)c2c1 [Example 73, (R)-(3-aminopiperidin-1-yl)(2-(1-(cyclopropylmethyl)-6-methoxy-1H-indol-2-yl)-5,6-dihydro-4H-imidazo[1,5,4-de]quinoxalin-8-yl)methanone]	–	–	actively inhibiting PAD4 enzyme activity
CS(=O)(=O)N1CCn2c(-c3cc4ccccc4n3CC3CC3)nc3cc(C(=O)N4CCC[C@@H](N)C4)cc1c32 [Example 76, (R)-(3-aminopiperidin-1-yl)(2-(1-(cyclopropylmethyl)-1H-indol-2-yl)-6-(methylsulfonyl)-5,6-dihydro-4H-imidazo[1,5,4-de]quinoxalin-8-yl)methanone]	1000 to 10000	≤ 1000	–
N[C@@H]1CCCN(C(=O)c2cc3c4c(c2)nc(-c2cc5cc(F)c(F)cc5n2CC2CC2)n4CCN3)C1 [Example 77, (R)-(3-aminopiperidin-1-yl)(2-(1-(cyclopropylmethyl)-5,6-difluoro-1H-indol-2-yl)-5,6-dihydro-4H-imidazo[1,5,4-de]quinoxalin-8-yl)methanone]	–	–	actively inhibiting PAD4 enzyme activity
N[C@@H]1CCCN(C(=O)c2cc3c4c(c2)nc(-c2cc5ccccc5n2CC2CC2)n4CCN3S(=O)(=O)c2ccc(Cl)cc2)C1 [Example 81, (R)-(3-aminopiperidin-1-yl)(6-((4-chlorophenyl)sulfonyl)-2-(1-(cyclopropylmethyl)-1H-indol-2-yl)-5,6-dihydro-4H-imidazo[1,5,4-de]quinoxalin-8-yl)methanone]	–	≥ 10000	–
N[C@@H]1CCCN(C(=O)c2cc3c4c(c2)nc(-c2cc5ccccc5n2CC2CC2)n4CCN3S(=O)(=O)C2CC2)C1 [Example 82, (R)-(3-aminopiperidin-1-yl)(2-(1-(cyclopropylmethyl)-1H-indol-2-yl)-6-(cyclopropylsulfonyl)-5,6-dihydro-4H-imidazo[1,5,4-de]quinoxalin-8-yl)methanone]	–	1000 to 10000	–
CCOCCS(=O)(=O)N1CCn2c(-c3cc4ccccc4n3CC3CC3)nc3cc(C(=O)N4CCC[C@@H](N)C4)cc1c32 [Example 83, (R)-(3-aminopiperidin-1-yl)(2-(1-(cyclopropylmethyl)-1H-indol-2-yl)-6-((2-ethoxyethyl)sulfonyl)-5,6-dihydro-4H-imidazo[1,5,4-de]quinoxalin-8-yl)methanone]	–	1000 to 10000	–
Cc1cccc2cc(-c3nc4cc(C(=O)N5CCC[C@@H](N)C5)cc5c4n3CCN5)n(CC3CC3)c12 [Example 84, (R)-(3-aminopiperidin-1-yl)(2-(1-(cyclopropylmethyl)-7-methyl-1H-indol-2-yl)-5,6-dihydro-4H-imidazo [1,5,4-de]quinoxalin-8-yl)methanone]	–	≤ 1000	–
CC(=O)N1CCn2c(-c3cc4ccccc4n3CC3CC3)nc3cc(C(=O)N4CCC[C@@H](N)C4)cc1c32 [Example 85]	–	≤ 1000	–
N[C@@H]1CCCN(C(=S)c2cc3c4c(c2)nc(-c2cc5ccccc5n2CC2CC2)n4CCN3)C1 [Example 86, (R)-(3-aminopiperidin-1-yl)(2-(1-(cyclopropylmethyl)-1H-indol-2-yl)-5,6-dihydro-4H-imidazo [1,5,4-de]quinoxalin-8-yl)methanethione]	–	≤ 1000	–
N[C@@H]1CCCN(C(=O)c2cc3c4c(c2)nc(-c2cc5ccc(F)c(Cl)c5n2CC2CC2)n4CCO3)C1 [Example 87, (R)-(3-aminopiperidin-1-yl)(2-(7-chloro-1-(cyclopropylmethyl)-6-fluoro-1H-indol-2-yl)-3,4-dihydro-5-oxa-1,2a-diazaacenaphthylen-7-yl)methanone]	–	≤ 1000	–
N[C@@H]1CCCN(C(=O)c2cc3c4c(c2)nc(-c2cc5cccc(Cl)c5n2Cc2cncnc2)n4CCO3)C1 [Example 88, (R)-(3-aminopiperidin-1-yl)(2-(7-chloro-1-(pyrimidin-5-ylmethyl)-1H-indol-2-yl)-3,4-dihydro-5-oxa-1,2a-diazaacenaphthylen-7-yl)methanone]	–	1000 to 10000	–
